The values below come from PubChem BioAssay AID328 (DTP/NCI, 2004).

The test system of this test is BDF1 mice, P388 leukemia ip, median survival T/C. Put plainly: NCI In Vivo Anticancer Drug Screen. Data for tumor model P388 Leukemia (intraperitoneal) in B6D2F1 (BDF1) mice. The note with it: endpoint: median survival time, higher = longer survival. In short, it runs like this: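 Vehicle-dosed animals serve as the reference; survival of compound-dosed, tumour-implanted mice is divided by it.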

[1] abbreviates: dose: 50.0 mg/kg/injection, schedule: Q01DX009 (ip), vehicle: saline with Tween-80.
[2] abbreviates: dose: 200.0 mg/kg/injection, schedule: Q01DX009 (ip), vehicle: saline with Tween-80.
Setting [3] is: dose: 100.0 mg/kg/injection, schedule: Q01DX009 (ip), vehicle: saline with Tween-80.
[4] abbreviates: dose: 100.0 mg/kg/injection, schedule: Q04DX003 (ip), vehicle: saline with Tween-80.
The mark [5] stands for this setting: dose: 200.0 mg/kg/injection, schedule: Q04DX003 (ip), vehicle: saline with Tween-80.
Where [6] appears, read: dose: 400.0 mg/kg/injection, schedule: Q04DX003 (ip), vehicle: saline with Tween-80.
Where [7] appears, read: dose: 100.0 mg/kg/injection, schedule: Q01DX001 (ip), vehicle: Klucel (hydroxypropylcellulose) (HPC).
Where [8] appears, read: dose: 200.0 mg/kg/injection, schedule: Q01DX001 (ip), vehicle: Klucel (hydroxypropylcellulose) (HPC).
Where [9] appears, read: dose: 400.0 mg/kg/injection, schedule: Q01DX001 (ip), vehicle: Klucel (hydroxypropylcellulose) (HPC).
Where [10] appears, read: dose: 25.0 mg/kg/injection, schedule: Q01DX009 (ip), vehicle: saline.
Where [11] appears, read: dose: 50.0 mg/kg/injection, schedule: Q04DX003 (ip), vehicle: saline.

“And” between values parts separate entries of the source, which are not always exact repeats. Identical values can stand only once. Inconclusive results and toxic doses are left out.

Regarding `CC1(O)CC(=O)c2c(ccc3c2C(=O)c2cccc(O)c2C3=O)C1` (centres undefined), the T/C is 101 % of control (dose: 0.5 mg/kg/injection, schedule: Q01DX009 (ip), vehicle: Klucel (hydroxypropylcellulose) (HPC)); 101 % of control (dose: 1.0 mg/kg/injection, schedule: Q01DX009 (ip), vehicle: Klucel (hydroxypropylcellulose) (HPC)); 109 % of control (dose: 2.0 mg/kg/injection, schedule: Q01DX009 (ip), vehicle: Klucel (hydroxypropylcellulose) (HPC)); 111 % of control (dose: 4.0 mg/kg/injection, schedule: Q01DX009 (ip), vehicle: Klucel (hydroxypropylcellulose) (HPC)).
Consider `COC(=O)C1=C(\N2CCOCC2)CCCCC/C=C\1C(=O)OC`, for which the T/C under setting [1] was 100 % of control and the T/C under setting [2] is 100 % of control.
With `O=C(Oc1cc(Cl)ccc1Cl)c1ccccc1`, the T/C reads like this: under setting [1], 122 % of control; under setting [3], 89 % of control; (dose: 400.0 mg/kg/injection, schedule: Q01DX009 (ip), vehicle: saline with Tween-80) 89 % of control.
Consider `Cc1ccc(C2=NNc3n[nH]c(=S)n3N2)cc1`, for which the T/C was 91 % of control under setting [4], 95 % of control under setting [5] and 100 % of control under setting [6].
Regarding `Cc1ccc(COC(=O)c2ccccc2)cc1`, the T/C under setting [7] was 104 % of control, the T/C under setting [8] was 95 % of control and the T/C under setting [9] is 104 % of control.
In the case of `OC(CCl)CN1CC[N+]2(CC1)CC[N+]1(CCN(CC(O)CCl)CC1)CC2` (centres undefined), the T/C (dose: 11.25 mg/kg/injection, schedule: Q01DX009 (ip), vehicle: water) is 114 % of control; the T/C (dose: 27.5 mg/kg/injection, schedule: Q01DX009 (ip), vehicle: water) is 100 % of control; the T/C (dose: 45.0 mg/kg/injection, schedule: Q01DX009 (ip), vehicle: water) was 115 % of control; the T/C (dose: 200.0 mg/kg/injection, schedule: Q01DX009 (ip), vehicle: water) is 153 % of control and 159 % of control.
On to `COc1ccc(-n2nc3c(c2-c2cccnc2)CCc2ccccc2-3)cc1`, for which the T/C runs as follows: (dose: 100.0 mg/kg/injection, schedule: Q04DX003 (ip), vehicle: Klucel (hydroxypropylcellulose) (HPC)) 103 % of control; (dose: 200.0 mg/kg/injection, schedule: Q04DX003 (ip), vehicle: Klucel (hydroxypropylcellulose) (HPC)) 109 % of control; (dose: 400.0 mg/kg/injection, schedule: Q04DX003 (ip), vehicle: Klucel (hydroxypropylcellulose) (HPC)) 105 % of control.
Regarding `CC1CNC(=S)O1` (centres undefined), the T/C was 90 % of control (dose: 50.0 mg/kg/injection, schedule: Q04DX003 (ip), vehicle: saline with Tween-80); 120 % of control under setting [4]; 90 % of control under setting [5]; 115 % of control under setting [6].
On to `CC(c1ccccc1)N1CCS(=O)(=O)CC1` (centres undefined), for which the T/C is 93 % of control (dose: 50.0 mg/kg/injection, schedule: Q01DX009 (ip), vehicle: Klucel (hydroxypropylcellulose) (HPC)); 106 % of control (dose: 100.0 mg/kg/injection, schedule: Q01DX009 (ip), vehicle: Klucel (hydroxypropylcellulose) (HPC)); 90 % of control (dose: 200.0 mg/kg/injection, schedule: Q01DX009 (ip), vehicle: Klucel (hydroxypropylcellulose) (HPC)).
As for `COc1cc2c(cc1OC)C(C)=NCC2`, the T/C was 104 % of control (dose: 3.0 mg/kg/injection, schedule: Q01DX001 (ip), vehicle: saline); 104 % of control (dose: 6.0 mg/kg/injection, schedule: Q01DX001 (ip), vehicle: saline); 108 % of control (dose: 12.0 mg/kg/injection, schedule: Q01DX001 (ip), vehicle: saline); 100 % of control (dose: 12.0 mg/kg/injection, schedule: Q01DX009 (ip), vehicle: saline); 95 % of control (dose: 12.0 mg/kg/injection, schedule: Q04DX003 (ip), vehicle: saline); 104 % of control (dose: 25.0 mg/kg/injection, schedule: Q01DX001 (ip), vehicle: saline). The T/C is 100 % of control under setting [10]; 104 % of control (dose: 25.0 mg/kg/injection, schedule: Q04DX003 (ip), vehicle: saline); 108 % of control (dose: 50.0 mg/kg/injection, schedule: Q01DX001 (ip), vehicle: saline); 95 % of control (dose: 50.0 mg/kg/injection, schedule: Q01DX009 (ip), vehicle: saline); 100 % of control under setting [11].
With `CCOC(=O)C1=C(N)CC(c2ccc(C#N)cc2)NC1c1cccc(OC)c1O` (centres undefined), the T/C is 105 % of control (dose: 100.0 mg/kg/injection, schedule: Q01DX001 (ip), vehicle: saline with Tween-80) and 111 % of control (dose: 200.0 mg/kg/injection, schedule: Q01DX001 (ip), vehicle: saline with Tween-80).
Turning to `CCCOC(=O)c1ccc(OP(=O)(N(C)C)N(C)C)cc1`, the T/C under setting [1] is 100 % of control, the T/C under setting [3] was 104 % of control and the T/C under setting [2] is 100 % of control.
As to `CCCCCC(C1=NC(C)(C)CC(C)O1)c1ccccc1` (centres undefined), the T/C reads like this: (dose: 50.0 mg/kg/injection, schedule: Q04DX003 (ip), vehicle: saline sonified) 100 % of control; (dose: 100.0 mg/kg/injection, schedule: Q04DX003 (ip), vehicle: saline sonified) 100 % of control; (dose: 200.0 mg/kg/injection, schedule: Q04DX003 (ip), vehicle: saline sonified) 100 % of control.
`CNC1=C(N2CC2)C(=O)C(NC)=C(N2CC2)C1=O`: the T/C by setting is: (dose: 0.05 mg/kg/injection, schedule: Q01DX009 (ip), vehicle: saline) 159 % of control; (dose: 0.1 mg/kg/injection, schedule: Q01DX009 (ip), vehicle: saline) 151 % of control and 169 % of control; (dose: 0.2 mg/kg/injection, schedule: Q01DX009 (ip), vehicle: saline) 195 % of control.
Take `Nc1nc(N)c2nc(SC34CC5CC(CC(C5)C3)C4)c(N)nc2n1`: the T/C is, setting by setting: under setting [4], 97 % of control; under setting [5], 88 % of control; under setting [6], 94 % of control.
With `CN(C)c1ccc(P(c2ccc(N(C)C)cc2)c2ccc(N(C)C)cc2)cc1`, the T/C was 96 % of control (dose: 3.12 mg/kg/injection, schedule: Q01DX009 (ip), vehicle: Klucel (hydroxypropylcellulose) (HPC)); 88 % of control (dose: 6.25 mg/kg/injection, schedule: Q01DX009 (ip), vehicle: Klucel (hydroxypropylcellulose) (HPC)); 88 % of control (dose: 12.5 mg/kg/injection, schedule: Q01DX009 (ip), vehicle: Klucel (hydroxypropylcellulose) (HPC)); 91 % of control (dose: 12.5 mg/kg/injection, schedule: Q04DX003 (ip), vehicle: Klucel (hydroxypropylcellulose) (HPC)); 113 % of control (dose: 25.0 mg/kg/injection, schedule: Q04DX003 (ip), vehicle: Klucel (hydroxypropylcellulose) (HPC)); 86 % of control (dose: 50.0 mg/kg/injection, schedule: Q04DX003 (ip), vehicle: Klucel (hydroxypropylcellulose) (HPC)).
As to `Nc1ncc(Cl)c2ccccc12`, the T/C (dose: 25.0 mg/kg/injection, schedule: Q01DX005 (ip), vehicle: saline with Tween-80) was 89 % of control.
With `COC(=O)C1(C)N=C(Cc2ccccc2)OO1` (centres undefined), the T/C is, setting by setting: (dose: 25.0 mg/kg/injection, schedule: Q01DX009 (ip), vehicle: saline with Tween-80) 100 % of control; under setting [1], 110 % of control; under setting [3], 105 % of control.
As to `O=C(O)CNOCN1C(=O)c2ccccc2C1=O`, the T/C runs as follows: under setting [7], 104 % of control; under setting [8], 91 % of control; under setting [9], 95 % of control.
For `CO[C@@H](C=O)O[C@@H](C=O)CO`, the T/C (dose: 6.25 mg/kg/injection, schedule: Q01DX009 (ip), vehicle: saline) is 120 % of control; the T/C under setting [10] was 150 % of control; the T/C under setting [11] is 150 % of control; the T/C (dose: 89.0 mg/kg/injection, schedule: Q04DX003 (ip), vehicle: saline) was 170 % of control; the T/C (dose: 100.0 mg/kg/injection, schedule: Q04DX003 (ip), vehicle: saline) was 160 % of control; the T/C (dose: 133.0 mg/kg/injection, schedule: Q04DX003 (ip), vehicle: saline) was 160 % of control. Moreover, where the note is “dose: 200.0 mg/kg/injection, schedule: Q04DX003 (ip), vehicle: saline”, the T/C was 175 % of control and 180 % of control.
